Experimental data: EP4692105A1, “CYCLIC POLYPEPTIDE COMPOUND AND USE THEREOF” (Bivision Pharmaceuticals, Inc, priority 2023, dated 2024)
Ends that are not written are not given here.

Assays:
FAP protein = target: T1, FAP protein (Homo sapiens, UniProt Q12884); test: Biacore (SPR) test of compound affinity to FAP protein; format: binding; settings: for pKD (FAP): Biacore 8K, SA chip, 15 °C, single cycle, 1:1 binding model, pKD = -LogKD
T1 construct: purchased Sinobiological
T1 sequence (Q12884 1-760): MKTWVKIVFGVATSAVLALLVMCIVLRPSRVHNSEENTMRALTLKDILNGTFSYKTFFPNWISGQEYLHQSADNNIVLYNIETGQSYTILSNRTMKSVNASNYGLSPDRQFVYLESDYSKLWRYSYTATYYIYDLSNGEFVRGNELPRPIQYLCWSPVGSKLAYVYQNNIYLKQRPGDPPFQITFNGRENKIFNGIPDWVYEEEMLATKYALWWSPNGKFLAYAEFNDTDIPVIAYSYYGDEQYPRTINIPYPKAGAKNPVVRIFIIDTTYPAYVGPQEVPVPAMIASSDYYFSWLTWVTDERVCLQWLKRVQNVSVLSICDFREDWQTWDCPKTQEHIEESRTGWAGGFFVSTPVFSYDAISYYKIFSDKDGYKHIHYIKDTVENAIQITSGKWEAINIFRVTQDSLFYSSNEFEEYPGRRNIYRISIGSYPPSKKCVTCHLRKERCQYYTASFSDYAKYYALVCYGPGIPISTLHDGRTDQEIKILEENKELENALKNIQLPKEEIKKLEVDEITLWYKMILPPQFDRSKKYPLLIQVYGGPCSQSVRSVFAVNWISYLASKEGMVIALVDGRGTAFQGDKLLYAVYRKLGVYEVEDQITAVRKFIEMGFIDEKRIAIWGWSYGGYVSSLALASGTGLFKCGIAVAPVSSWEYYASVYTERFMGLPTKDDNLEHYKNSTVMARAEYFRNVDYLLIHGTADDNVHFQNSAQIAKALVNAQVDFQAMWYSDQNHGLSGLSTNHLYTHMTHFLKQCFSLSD
Method: The Biacore 8K (Cytiva) instrument was used to detect ligand binding of the FAP protein (Sinobiological). FAP protein was captured on the SA chip. Prior to ligand immobilization (flow paths 1 and 2, flow rate of 10 µL/min), FAP protein (10 µg/mL, flow rate of 5 µL/min, injection time of 600 s) was immobilized on flow path 2 using running buffer. The sensor surface was conditioned by injecting 1M NaCl three consecutive times in 50 mM NaOH. After each ligand injection, additional cleaning was performed using isopropanol in 1M NaCl and 50 mM NaOH (flow path 1 and 2, flow rate of 10 µL/min, injection time of 60 s).
The tested compound was dissolved in 100% dimethyl sulfoxide and diluted to 10 mM, then diluted in the assay buffer (PBS, pH 7.4, 1 mM TCEP ([…]), 0.05% P20, 2% dimethyl sulfoxide) to an appropriate maximum concentration. The analyte was run under the following conditions: analysis temperature of 15 °C, analysis step = all set to LMW kinetics; cycle type = single cycle (contact time of 90 s, dissociation time of 1800 s, flow rate of 30 µL/min, flow channels 1 and 2); channel detection = 2-1. Data was evaluated using the Biacore Insight Evaluation Software, and the data were fitted to a 1:1 binding model.
The Biacore results are shown in Table 2 below: pKD = -LogKD, where KD is the binding affinity of the compound to the FAP protein as measured by Biacore.

[1] = target: T2, fibroblast activation protein (FAP) (Homo sapiens, UniProt Q12884); test: Protease inhibition selectivity assay (fluorogenic substrate Z-Gly-Pro-AMC), FAP; format: biochemical; settings: recombinant human FAP 1.2 nM, pH 7.5
T2 sequence (Q12884 1-760): T1 sequence (Q12884 1-760)
Method: (§1) The specificity of the synthesized compounds for recombinant human dipeptidyl peptidase IV (DPPIV), fibroblast activation protein (FAP), or prolyl oligopeptidase (PREP) was expressed by their half-maximal inhibitory concentration (IC50) against the proteases. […] It was incubated at room temperature for 10 minutes, with the plate being shaken for the first two minutes. • 6) 10 µL of the 20x substrate prepared in step 3 was added to each well and incubated at room temperature for 15 minutes, with the plate being shaken for the first two minutes. • 7) Fluorescence was read at λex:380 and λem:460.

[2] = target: dipeptidyl peptidase IV (DPPIV) (Homo sapiens, UniProt P27487); test: Protease inhibition selectivity assay (fluorogenic substrate Gly-Pro-AMC), DPPIV; format: biochemical; settings: recombinant human DPPIV 0.1 nM, pH 7.5; read-out: pIC50 (DPPIV) (converted)
dipeptidyl peptidase IV (DPPIV), sequence (P27487 whole entry): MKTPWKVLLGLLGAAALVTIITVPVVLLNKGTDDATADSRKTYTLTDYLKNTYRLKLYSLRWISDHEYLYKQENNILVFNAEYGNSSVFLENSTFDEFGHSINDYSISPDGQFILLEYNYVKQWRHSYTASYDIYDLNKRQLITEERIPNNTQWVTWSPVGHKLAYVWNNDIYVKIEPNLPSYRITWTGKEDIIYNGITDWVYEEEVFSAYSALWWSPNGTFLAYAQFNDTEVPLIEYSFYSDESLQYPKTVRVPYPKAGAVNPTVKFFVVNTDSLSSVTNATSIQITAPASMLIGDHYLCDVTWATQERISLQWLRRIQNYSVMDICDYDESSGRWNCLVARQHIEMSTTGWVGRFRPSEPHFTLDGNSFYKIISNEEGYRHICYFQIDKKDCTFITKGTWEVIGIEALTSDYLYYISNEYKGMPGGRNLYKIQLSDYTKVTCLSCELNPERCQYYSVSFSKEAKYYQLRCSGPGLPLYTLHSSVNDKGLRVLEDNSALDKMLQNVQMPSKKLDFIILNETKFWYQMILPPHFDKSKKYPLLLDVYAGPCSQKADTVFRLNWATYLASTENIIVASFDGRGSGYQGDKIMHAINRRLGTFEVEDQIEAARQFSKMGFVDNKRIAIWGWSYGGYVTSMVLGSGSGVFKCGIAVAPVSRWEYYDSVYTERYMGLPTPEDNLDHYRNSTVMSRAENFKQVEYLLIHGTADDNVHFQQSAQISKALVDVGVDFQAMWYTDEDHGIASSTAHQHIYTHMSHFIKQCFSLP
Method: as §1

[3] = target: T3, prolyl oligopeptidase (PREP) (Homo sapiens, UniProt P48147); test: Protease inhibition selectivity assay (fluorogenic substrate Z-Gly-Pro-AMC), PREP; format: biochemical; settings: recombinant human PREP 0.6 nM, pH 8.0
T3 sequence (P48147 1-710): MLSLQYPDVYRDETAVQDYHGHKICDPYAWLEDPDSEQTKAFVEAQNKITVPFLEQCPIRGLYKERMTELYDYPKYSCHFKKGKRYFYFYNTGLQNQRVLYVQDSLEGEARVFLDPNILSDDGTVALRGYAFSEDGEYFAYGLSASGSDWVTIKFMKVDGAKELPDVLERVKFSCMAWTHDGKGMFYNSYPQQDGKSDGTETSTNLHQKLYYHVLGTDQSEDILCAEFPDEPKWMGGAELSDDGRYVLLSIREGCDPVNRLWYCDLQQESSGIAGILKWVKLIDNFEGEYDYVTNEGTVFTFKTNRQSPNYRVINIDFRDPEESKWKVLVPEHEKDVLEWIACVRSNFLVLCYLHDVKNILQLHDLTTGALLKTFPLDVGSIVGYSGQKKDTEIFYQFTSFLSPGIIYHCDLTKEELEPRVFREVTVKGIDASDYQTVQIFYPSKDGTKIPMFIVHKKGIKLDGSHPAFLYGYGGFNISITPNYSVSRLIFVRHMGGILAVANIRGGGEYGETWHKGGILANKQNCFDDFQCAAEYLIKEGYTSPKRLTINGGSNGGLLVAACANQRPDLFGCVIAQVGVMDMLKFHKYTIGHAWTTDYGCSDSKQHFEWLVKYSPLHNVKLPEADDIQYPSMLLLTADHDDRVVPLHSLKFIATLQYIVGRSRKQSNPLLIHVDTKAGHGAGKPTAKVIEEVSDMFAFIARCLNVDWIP
Method: as §1

| Kd (FAP protein; read-out: pKD (FAP) (converted)) [nM] | IC50 [1] [nM] | IC50 [2] [nM] | IC50 [3] [nM] | pKD (FAP) (FAP protein) | Compound |
| --- | --- | --- | --- | --- | --- |
| 10 to 100 | < 10 | > 1000 | > 1000 | – | CCCCCC(=O)N[C@H]1CSCc2cc(CSCCNC(=O)CN3CCN(CC(=O)O)CCN(CC(=O)O)CCN(CC(=O)O)CC3)cc(c2)CSC[C@@H](C(=O)O)NC(=O)[C@H](Cc2ccccc2)NC(=O)[C@H](CCC(N)=O)NC(=O)[C@H]([C@@H](C)O)NC(=O)[C@@H]2CCCN2C(=O)[C@@H]2CCCN2C1=O [FAP-2286] |
| – | – | – | – | B (B: 7<pKD<8) | Hex[Cys(3MeBn)-hhy44(NH)-CO-Pro-Thr-Gln-Phe-Cys]-Lys-(DOTA)-OH (PTQFC-{K(DOTA)-OH}; not fully specified (N-terminus, bridges); also: cyclised within brackets, ring closure not given here) [JHDC07] |
| – | – | – | – | B (B: 7<pKD<8) | Oct[Cys(tMeBn-DOTA-AET)-hhy39-Pro-Thr-Gln-hhy34-Cys]-Glu-(Arg-Gly-Asp(NH2))-OH [JHDC21] |
